Tests used:
FCV = FCV inactivation with decreasing amounts of S-59 after pre-incubation, plaque assay; format: cell-based, feline calicivirus (FCV); details: for FCV titer after UVA: UVA ~3 J/cm^2; for FCV log inactivation: vs 0 hr control titer 5.84
Method: An additional study was performed to evaluate the level of FCV inactivation with decreasing amounts of S-59 after extended incubation (e.g., pre-incubation) in PAS/Plasma. In this study, platelets in PAS/Plasma (65%/35%) were spiked with a stock of FCV at a 1:100 dilution. The FCV-spiked platelets were then split into 16 separate test units. Each unit was dosed with S-59 at approximately 150 μM, 90 μM, 30 μM or 15 μM concentration. Following the addition of S-59 in one of four dosing groups, the platelet units in each dosing group were incubated for 0, 4, 8 or 24 hr prior to illumination. A control sample was taken from each unit for virus titer determination and HPLC analysis of S-59 concentration pre-UVA treatment, followed by UVA light exposure at ˜3 J/cm^2 for photochemical treatment of the test samples. Following UVA treatment, the control and test samples were evaluated for inactivation of FCV using a standard virological plaque assay. […] Control titer at 0 hr pool used for all log inactivation calculations (5.84 log/mL).

[1] = Stability and photoconversion of S-59 in 65% PAS/35% plasma with platelets (HPLC); format: physicochemical; details: for S-59 UV peak area (HPLC) / S-59 concentration (HPLC): 150 μM in 65% InterSol PAS/35% plasma with platelets
Method: A further study evaluated stability and photoconversion of amotosalen (S-59) in PAS with added plasma, and also containing platelets. S-59 was added at a concentration of 150 μM to 65% InterSol® PAS and 35% plasma a suspended preparation of platelets, and the admixture maintained in a platelet incubator during the study time course. Samples were removed for HPLC analysis at times 0, 5, 21, 29 and 48 hours, and the mixture was then treated with ˜3 J of UVA light at 55 hours with a post-UVA sample also analyzed by HPLC for both S-59 and photoproducts. […] Peak D and Peak E photoproducts were not detected (Table 3).

[2] = Stability and photoconversion of S-59 in PAS/plasma with platelets and bacteria (HPLC); format: physicochemical; details: for % S-59 conversion: after UVA
Method: Another study evaluated 24 hour stability and photoconversion of amotosalen (S-59) in PAS with plasma and platelets, in the presence of bacteria. Two ABO matched platelet units in 100% plasma were pooled, split into two units and InterSol® PAS added (e.g., 65/35). S-59 was added to the test unit at a concentration of 150 but not initially to the control unit. A log culture of K. pneumoniae (˜8 log cfu/mL) was added to the units at a target of ˜60 CFU/unit and the units were incubated in a platelets shaker at 22° C. for approximately 24 hours. At the end of incubation, S-59 was also added to the control unit at the same concentration and both control and test units were subjected to UVA light. Samples were taken pre- and post-UVA illumination for both units bacterial titer assay and HPLC. Post-illumination both units were subjected to a CAD processing step to remove residual amotosalen and photoproducts and stored on a platelet shaker for 7 days to confirm no growth of bacteria.

K. pneumoniae = assay: Photochemical inactivation of K. pneumoniae in platelets, bacterial titer assay; format: cell-based
Method: Another study evaluated 24 hour stability and photoconversion of amotosalen (S-59) in PAS with plasma and platelets, in the presence of bacteria. Two ABO matched platelet units in 100% plasma were pooled, split into two units and InterSol® PAS added (e.g., 65/35). S-59 was added to the test unit at a concentration of 150 but not initially to the control unit. A log culture of K. pneumoniae (˜8 log cfu/mL) was added to the units at a target of ˜60 CFU/unit and the units were incubated in a platelets shaker at 22° C. for approximately 24 hours. At the end of incubation, S-59 was also added to the control unit at the same concentration and both control and test units were subjected to UVA light. Samples were taken pre- and post-UVA illumination for both units bacterial titer assay and HPLC. Post-illumination both units were subjected to a CAD processing step to remove residual amotosalen and photoproducts and stored on a platelet shaker for 7 days to confirm no growth of bacteria. Photochemical inactivation of K. pneumoniae was also measured post-UVA exposure, with the titer (log cfu/mL) results shown in the following table.

[3] = S-59 15 μM, pre-incubation 0 hr
[4] = S-59 15 μM, pre-incubation 4 hr
[5] = S-59 15 μM, pre-incubation 8 hr
[6] = S-59 15 μM, pre-incubation 24 hr
[7] = S-59 30 μM, pre-incubation 0 hr
[8] = S-59 30 μM, pre-incubation 4 hr
[9] = S-59 30 μM, pre-incubation 8 hr
[10] = S-59 30 μM, pre-incubation 24 hr
[11] = S-59 90 μM, pre-incubation 0 hr
[12] = S-59 90 μM, pre-incubation 4 hr
[13] = S-59 90 μM, pre-incubation 8 hr
[14] = S-59 90 μM, pre-incubation 24 hr
[15] = S-59 150 μM, pre-incubation 0 hr
[16] = S-59 150 μM, pre-incubation 4 hr
[17] = S-59 150 μM, pre-incubation 8 hr
[18] = S-59 150 μM, pre-incubation 24 hr
[19] = Control unit (S-59 added after ~24 h incubation, then UVA), Replicate 1
[20] = Control unit (S-59 added after ~24 h incubation, then UVA), Replicate 2
[21] = Test unit (S-59 150 present during ~24 h incubation, then UVA), Replicate 1
[22] = Test unit (S-59 150 present during ~24 h incubation, then UVA), Replicate 2

In the case of Cc1oc2c(C)c3oc(=O)cc(C)c3cc2c1COCCN [S-59, 3-(2-aminoethoxymethyl)-2,5,9-trimethylfuro[3,2-g]chromen-7-one], the “FCV titer after UVA” value (FCV; [3]) is reported as 5.65 log PFU/mL, the FCV log inactivation (FCV; [3]) is reported as 0.19 log/mL and the “FCV titer after UVA” value (FCV; [4]) is reported as 4.49 log PFU/mL. The FCV log inactivation (FCV; [4]) was 1.35 log/mL, the “FCV titer after UVA” value (FCV; [5]) was 2.22 log PFU/mL and the FCV log inactivation (FCV; [5]) was 3.62 log/mL. The “FCV titer after UVA” value (FCV; [6]) was 0.52 log PFU/mL, the FCV log inactivation (FCV; [6]) was 5.32 log/mL and the “FCV titer after UVA” value (FCV; [7]) was 4.91 log PFU/mL. For the same compound, the FCV log inactivation (FCV; [7]) was 0.93 log/mL, the “FCV titer after UVA” value (FCV; [8]) was 2.00 log PFU/mL and the FCV log inactivation (FCV; [8]) was 3.84 log/mL. The “FCV titer after UVA” value (FCV; [9]) was under 1.22 log PFU/mL, the FCV log inactivation (FCV; [9]) was 4.62 log/mL and the “FCV titer after UVA” value (FCV; [10]) was under −0.22 log PFU/mL. The FCV log inactivation (FCV; [10]) was 5.62 log/mL, the “FCV titer after UVA” value (FCV; [11]) was 4.90 log PFU/mL and the FCV log inactivation (FCV; [11]) was 0.94 log/mL. For the same compound, the “FCV titer after UVA” value (FCV; [12]) was under 0.22 log PFU/mL, the FCV log inactivation (FCV; [12]) was 5.62 log/mL and the “FCV titer after UVA” value (FCV; [13]) was under −0.48 log PFU/mL. For the same compound, the FCV log inactivation (FCV; [13]) was 5.84 log/mL, the “FCV titer after UVA” value (FCV; [14]) was under −0.30 log PFU/mL and the FCV log inactivation (FCV; [14]) was 5.84 log/mL. For the same compound, the “FCV titer after UVA” value (FCV; [15]) was 4.33 log PFU/mL, the FCV log inactivation (FCV; [15]) was 1.51 log/mL and the “FCV titer after UVA” value (FCV; [16]) was under 0.22 log PFU/mL. The FCV log inactivation (FCV; [16]) was 5.62 log/mL, the “FCV titer after UVA” value (FCV; [17]) was under −0.48 log PFU/mL and the FCV log inactivation (FCV; [17]) was 5.84 log/mL. The “FCV titer after UVA” value (FCV; [18]) was under −0.48 log PFU/mL, the FCV log inactivation (FCV; [18]) was 5.84 log/mL and the FCV inactivation (FCV; pre-incubation 4, 8 or 24 hours at 150 μM and 90 μM, 8 or 24 hours at 30 μM, 24 hours at 15 μM) was “greater than 4 logs”. For the same compound, the FCV inactivation (FCV; pre-incubation 4 hr, 30 μM S-59) was about 4 logs, the FCV inactivation (FCV; pre-incubation 8 hr, 15 μM S-59) was “greater than 3.5 logs” and the “S-59 UV peak area (HPLC)” value ([1]; platelet incubator, 5 hr) was 1738.331. The “S-59 concentration (HPLC)” value ([1]; platelet incubator, 5 hr) was 149.30 µM, the “S-59 UV peak area (HPLC)” value ([1]; platelet incubator, 21 hr) was 1739.214 and the “S-59 concentration (HPLC)” value ([1]; platelet incubator, 21 hr) was 147.81 µM. For the same compound, the “S-59 UV peak area (HPLC)” value ([1]; platelet incubator, 29 hr) was 1725.882, the “S-59 concentration (HPLC)” value ([1]; platelet incubator, 29 hr) was 148.04 µM and the “S-59 UV peak area (HPLC)” value ([1]; platelet incubator, 48 hr) was 1750.513. The “S-59 concentration (HPLC)” value ([1]; platelet incubator, 48 hr) was 148.06 µM, the “S-59 UV peak area (HPLC)” value ([1]; platelet incubator, T 0) was 1752.513 and the “S-59 concentration (HPLC)” value ([1]; platelet incubator, T 0) was 148.12 µM. The “S-59 UV peak area (HPLC)” value ([1]; 55 hr post-UVA (~3 J UVA)) was 274.897, the “S-59 concentration (HPLC)” value ([1]; 55 hr post-UVA (~3 J UVA)) was 22.71 µM and the “S-59 remaining in the post-UVA samples” value ([1]; 150 μM, 55 hour incubation in PAS/plasma with platelets, then ~3 J UVA) was 15.3%. The “loss of S-59” value ([1]; PAS/plasma/platelets admixture, prior to the UVA treatment at 55 hours) was “no loss”, the S-59 concentration stability ([2]; 24 hour incubation period, control and test units, with K. pneumoniae) was “stable” and the S-59 concentration ([2]; Control unit (S-59 added at end of ~24 h incubation), platelets + K. pneumoniae, T_24h, Avg.) was 149 µM. For the same compound, the S-59 concentration ([2]; Control unit (S-59 added at end of ~24 h incubation), T_24h, Replicate 1) was 144 µM, the S-59 concentration ([2]; Control unit (S-59 added at end of ~24 h incubation), T_24h, Replicate 2) was 153 µM and the S-59 concentration ([2]; Control unit (S-59 added at end of ~24 h incubation), T_Post-UVA, Avg.) was 40 µM. The S-59 concentration ([2]; Control unit (S-59 added at end of ~24 h incubation), T_Post-UVA, Replicate 1) was 43 µM, the S-59 concentration ([2]; Control unit (S-59 added at end of ~24 h incubation), T_Post-UVA, Replicate 2) was 37 µM and the “% S-59 conversion” value ([2]; Control unit (S-59 added at end of ~24 h incubation), Avg.) was 27%. The “% S-59 conversion” value ([2]; Control unit (S-59 added at end of ~24 h incubation), Replicate 1) was 30%, the “% S-59 conversion” value ([2]; Control unit (S-59 added at end of ~24 h incubation), Replicate 2) was 24% and the S-59 concentration ([2]; Test unit (S-59 150 added before incubation), PAS/plasma platelets + K. pneumoniae, 22° C., T_0, Avg.) was 152 µM. The S-59 concentration ([2]; Test unit (S-59 added before incubation), platelets + K. pneumoniae, T_0, Replicate 1) was 149 µM, the S-59 concentration ([2]; Test unit (S-59 added before incubation), platelets + K. pneumoniae, T_0, Replicate 2) was 155 µM and the S-59 concentration ([2]; Test unit (S-59 added before incubation), platelets + K. pneumoniae, T_24h, Avg.) was 153 µM. For the same compound, the S-59 concentration ([2]; Test unit (S-59 added before incubation), T_24h, Replicate 1) was 149 µM, the S-59 concentration ([2]; Test unit (S-59 added before incubation), T_24h, Replicate 2) was 157 µM and the S-59 concentration ([2]; Test unit (S-59 added before incubation), T_Post-UVA, Avg.) was 26 µM. The S-59 concentration ([2]; Test unit (S-59 added before incubation), T_Post-UVA, Replicate 1) was 27 µM, the S-59 concentration ([2]; Test unit (S-59 added before incubation), T_Post-UVA, Replicate 2) was 24 µM and the “% S-59 conversion” value ([2]; Test unit (S-59 added before incubation), Avg.) was 17%. The “% S-59 conversion” value ([2]; Test unit (S-59 added before incubation), Replicate 1) was 18%, the “% S-59 conversion” value ([2]; Test unit (S-59 added before incubation), Replicate 2) was 15% and the “K. pneumoniae Log Reduction” value (K. pneumoniae; [19]) was over 7.3 Log. The “K. pneumoniae Titer Post-UVA” value (K. pneumoniae; [19]) was under −0.7 log cfu/mL, the “K. pneumoniae Log Reduction” value (K. pneumoniae; [20]) was over 6.3 Log and the “K. pneumoniae Titer Post-UVA” value (K. pneumoniae; [20]) was under −0.7 log cfu/mL. The “K. pneumoniae Log Reduction” value (K. pneumoniae; [21]) was over 7.3 Log, the “K. pneumoniae Titer Post-UVA” value (K. pneumoniae; [21]) was under −0.7 log cfu/mL and the “K. pneumoniae Log Reduction” value (K. pneumoniae; [22]) was over 6.2 Log. For the same compound, the “K. pneumoniae Titer Post-UVA” value (K. pneumoniae; [22]) was under −0.7 log cfu/mL and the “photochemical inactivation of K. pneumoniae” value (K. pneumoniae; post-UVA, both the control and test units) was “High level inactivation”.
